Source: US5849729A, “Use of hydrolyzed cocoa butter for percutaneous absorption” (Hershey Foods Corporation, priority 1995, dated 1998)
Several values for one entry are separate records, joined by “and”; a condition that tells them apart may be missing. Equal entries are not always repeated. Entries after “also recorded” stand apart in the source; their conditions may differ.

Test: In-vitro percutaneous absorption of retinoic acid and triamcinolone acetonide from two cocoa butter vehicles (Franz cells, 48 h)
Details: for % Abs (% Absorbed) / % Absorbed / total absorption: percent of applied dose
From the text: The objective of this study was to measure the permeation of retinoic acid and triamcinolone acetonide through human skin in-vitro from two cocoa butter vehicles.
Two cocoa butter vehicles supplied by Hershey Foods Corporation were utilized: (1) pure cocoa butter and (2) partially hydrolyzed cocoa butter emulsion. Radioactive [11,12-^3 H] [retinoic acid (NET 920, Lot 2930-067, specific activity 1 mCi/ml) and [6,7-^3 H]-triamcinolone acetonide (NET 470, Lot 2904-170, specific activity 1 mCi/ml) were obtained from Dupont-New England Nuclear Corporation, Boston, Mass.
Each of the two cocoa butter vehicles was spiked separately with ^3 H-retinoic acid and ^3 H-Triamcinolone acetonide to give a total of four radioactive formulations for study. This was done by adding 25 μl (containing 25 μCi) of each tracer solution to approximately 1 gram of each vehicle and mixing with the tip of the dispensing micropipette. The pure cocoa butter vehicle was liquified by holding it under warm tap water prior to spiking. This was not done with the partially hydrolyzed cocoa butter emulsion. Neither formulation was used for three days after spiking to allow for diffusional mixing to take place. Final radioactive concentrations of each formulation were: […]
Human trunk skin without obvious signs of disease was used throughout. It was obtained within 24 hours of death, dermatomed to a thickness of approximately 0.25 mm, cryopreserved and sealed in water vapor-impermeableplastic bags. It was stored at -70° C. until the day of use then thawed by placing the bag in 37° C. water.
Skin from a single donor was cut into multiple sections large enough to fit on 0.8 cm^2 Franz cells. The dermal chamber was filled with isotonic saline, pH 7.4, into which a small magnetic stirring bar was placed. The epidermal chamber was left open to the ambient laboratory environment, approximately 22° C. and 40-60% RH. The cells were placed in a diffusion apparatus in which the dermal receptor solution was stirred magnetically at 600 RPM and its temperature maintained at 37° C.
To assure the integrity of each skin section, its permeability to tritiated water was determined before application of the test formulations. Following a brief (0.5-1 hour) equilibration period, 150 μl ^3 H2 O (specific activity 0.3 μCi/ml) was layered across the top of the skin section so that the entire exposed surface was covered. After 5 minutes the aqueous layer was removed and the surface of the skin carefully blotted dry. At t=0.5 hour the saline receptor phase was removed and analyzed for radioactive content by liquid scintillation counting. Skin specimens in which absorption of ^3 H2 O was less than 1.25 μl were considered acceptable.
Subsequently, each test formulation was applied at a target dose of 10 mg (cream) or 10 μl (butter). The cream formulation (partially hydrolyzed cocoa butter emulsion) was applied from the smooth, rounded-tip of a glass rod, the exact amount determined by weighing the rod before and after application. The butter formulation (pure cocoa butter) was first liquified under warm tap water, allowed to cool to room temperature, then applied with a 10 μl positive displacement micropipette prior to resolidifying. At 4, 8, 12, 24, 36 and 48 hours the receptor solution was removed in its entirety, replaced with fresh solution, and a 1 ml aliquot taken and assayed for radioactive content by liquid scintillation counting.
A 1 ml aliquot of each receptor sample containing ^3 H2 O, ^3 H-retinoic acid, or ^3 H-triamcinolone acetonide was placed in a 7 ml glass scintillation vial and gelled by the addition of 5 ml Opti-Fluor (Packard Instrument Co., Meriden, Conn.). These were counted in a Packard Tri-Carb Model 1900CA Liquid scintillation Analyzer equipped with internal standard and automatic quench correction.

[1] = butter (pure cocoa butter), 48 h, individual skin sections
[2] = butter, 48 h, average of three donors
[3] = butter, 48 h, average per skin donor (n=4), listed as RETINOIC ACID
[4] = butter, 48 h, average per skin donor (n=4), listed as Retinoic Acid

CC1=C(/C=C/C(C)=C/C=C/C(C)=C/C(=O)O)C(C)(C)CCC1 [retinoic acid]
absorption period versus current formulations (admixed with cocoa butter or partially hydrolyzed cocoa butter emulsion, in words): able to sustain a longer absorption period than has been demonstrated with current retinoic acid formulations
steady state rate of absorption (both cocoa butter formulations): approximately 15 ng/cm^2 /hr
rate of absorption profile / flux (both cocoa butter formulations, in words): higher than generally seen with other retinoic acid formulations; also recorded: relatively high flux rates
Penet (Total Penetration) [1]: 729.80 and 954.98 and 769.08 and 941.38 and 725.19 and 871.67 and 741.10 and 1267.53 and 552.40 and 552.46 and 685.17 and 944.68
% Abs (% Absorbed) [1]: 14.59% and 19.10% and 15.38% and 18.82% and 14.50% and 17.43% and 14.82% and 25.35% and 11.05% and 13.70% and 18.89%
Rate of absorption, R1 (butter (pure cocoa butter), sample R1, mid-t 2 h, individual skin sections): 36.55 ng/cm^2 /hr and 48.20 ng/cm^2 /hr and 39.43 ng/cm^2 /hr and 51.22 ng/cm^2 /hr and 55.25 ng/cm^2 /hr and 66.87 ng/cm^2 /hr and 50.92 ng/cm^2 /hr and 79.43 ng/cm^2 /hr and 40.64 ng/cm^2 /hr and 39.67 ng/cm^2 /hr and 51.71 ng/cm^2 /hr and 75.03 ng/cm^2 /hr
Rate of absorption, R3 (butter (pure cocoa butter), sample R3, mid-t 10 h, individual skin sections): 23.55 ng/cm^2 /hr and 28.39 ng/cm^2 /hr and 24.05 ng/cm^2 /hr and 29.61 ng/cm^2 /hr and 22.32 ng/cm^2 /hr and 21.53 ng/cm^2 /hr and 20.69 ng/cm^2 /hr and 34.12 ng/cm^2 /hr and 16.59 ng/cm^2 /hr and 15.24 ng/cm^2 /hr and 17.69 ng/cm^2 /hr and 25.75 ng/cm^2 /hr
Rate of absorption, R4 (butter (pure cocoa butter), sample R4, mid-t 18 h, individual skin sections): 14.13 ng/cm^2 /hr and 23.33 ng/cm^2 /hr and 15.22 ng/cm^2 /hr and 18.56 ng/cm^2 /hr and 18.11 ng/cm^2 /hr and 20.56 ng/cm^2 /hr and 20.18 ng/cm^2 /hr and 33.78 ng/cm^2 /hr and 15.63 ng/cm^2 /hr and 14.10 ng/cm^2 /hr and 16.64 ng/cm^2 /hr and 23.97 ng/cm^2 /hr
Rate of absorption, R5 (butter (pure cocoa butter), sample R5, mid-t 30 h, individual skin sections): 16.12 ng/cm^2 /hr and 19.00 ng/cm^2 /hr and 18.23 ng/cm^2 /hr and 16.25 ng/cm^2 /hr and 11.93 ng/cm^2 /hr and 15.30 ng/cm^2 /hr and 12.34 ng/cm^2 /hr and 23.05 ng/cm^2 /hr and 8.38 ng/cm^2 /hr and 9.60 ng/cm^2 /hr and 10.78 ng/cm^2 /hr and 16.34 ng/cm^2 /hr
Rate of absorption, R6 (butter (pure cocoa butter), sample R6, mid-t 42 h, individual skin sections): 15.54 ng/cm^2 /hr and 17.94 ng/cm^2 /hr and 14.86 ng/cm^2 /hr and 24.92 ng/cm^2 /hr and 11.83 ng/cm^2 /hr and 16.34 ng/cm^2 /hr and 13.15 ng/cm^2 /hr and 24.58 ng/cm^2 /hr and 8.20 ng/cm^2 /hr and 9.16 ng/cm^2 /hr and 10.53 ng/cm^2 /hr and 14.03 ng/cm^2 /hr
Total Penetration [2]: 811.29
Penet (Total Penetration) [3]: 848.81 and 901.37 and 683.68
Penet (Total Penetration) [4]: 683.68 and 901.37 and 848.81
Rate of absorption, R1 (butter, R1, mid-t 2 h, average of three donors): 52.91 ng/cm^2 /hr
Rate of absorption, R1 (butter, R1, mid-t 2 h, average per skin donor (n=4), listed as RETINOIC ACID): 43.85 ng/cm^2 /hr and 63.12 ng/cm^2 /hr and 51.76 ng/cm^2 /hr
Rate of absorption, R1 (butter, R1, mid-t 2 h, average per skin donor (n=4), listed as Retinoic Acid): 51.76 ng/cm^2 /hr and 63.12 ng/cm^2 /hr and 43.85 ng/cm^2 /hr
Rate of absorption, R3 (butter, R3, mid-t 10 h, average of three donors): 23.30 ng/cm^2 /hr
Rate of absorption, R3 (butter, R3, mid-t 10 h, average per skin donor (n=4), listed as RETINOIC ACID): 26.40 ng/cm^2 /hr and 24.67 ng/cm^2 /hr and 18.82 ng/cm^2 /hr
Rate of absorption, R3 (butter, R3, mid-t 10 h, average per skin donor (n=4), listed as Retinoic Acid): 18.82 ng/cm^2 /hr and 24.67 ng/cm^2 /hr and 26.40 ng/cm^2 /hr
Rate of absorption, R4 (butter, R4, mid-t 18 h, average of three donors): 19.52 ng/cm^2 /hr
Rate of absorption, R4 (butter, R4, mid-t 18 h, average per skin donor (n=4), listed as RETINOIC ACID): 17.81 ng/cm^2 /hr and 23.16 ng/cm^2 /hr and 17.59 ng/cm^2 /hr
Rate of absorption, R4 (butter, R4, mid-t 18 h, average per skin donor (n=4), listed as Retinoic Acid): 17.59 ng/cm^2 /hr and 23.16 ng/cm^2 /hr and 17.81 ng/cm^2 /hr
Rate of absorption, R5 (butter, R5, mid-t 30 h, average of three donors): 14.78 ng/cm^2 /hr
Rate of absorption, R5 (butter, R5, mid-t 30 h, average per skin donor (n=4), listed as RETINOIC ACID): 17.40 ng/cm^2 /hr and 15.66 ng/cm^2 /hr and 11.28 ng/cm^2 /hr
Rate of absorption, R5 (butter, R5, mid-t 30 h, average per skin donor (n=4), listed as Retinoic Acid): 11.28 ng/cm^2 /hr and 15.66 ng/cm^2 /hr and 17.40 ng/cm^2 /hr
Rate of absorption, R6 (butter, R6, mid-t 42 h, average of three donors): 15.09 ng/cm^2 /hr
Rate of absorption, R6 (butter, R6, mid-t 42 h, average per skin donor (n=4), listed as RETINOIC ACID): 18.31 ng/cm^2 /hr and 16.48 ng/cm^2 /hr and 10.48 ng/cm^2 /hr
Rate of absorption, R6 (butter, R6, mid-t 42 h, average per skin donor (n=4), listed as Retinoic Acid): 10.48 ng/cm^2 /hr and 16.48 ng/cm^2 /hr and 18.31 ng/cm^2 /hr
% Absorbed / total absorption [2]: 16.2%
% Absorbed / total absorption (butter, 48 h, average of three donors, listed as Retinoic Acid): 16.22%
% Abs (% Absorbed) [3]: 16.97% and 18.02% and 13.67%
% Abs (% Absorbed) [4]: 13.67% and 18.02% and 16.97%
